In PubChem BioAssay (NCI):
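Results reflect a 48-hour exposure of cells in 96-well plates to compound at five concentrations. Here, GI50 denotes the concentration required for 50% inhibition of growth. TGI: total growth inhibition.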

Key:
Assay in all cases: NCI anticancer screen, dose series, 48 h
SK-MEL-2 melanoma = test system: SK-MEL-2 melanoma
HCT-15 colon = test system: HCT-15 colon
MOLT-4 leukemia = test system: MOLT-4 leukemia
MALME-3M melanoma = test system: MALME-3M melanoma
SK-MEL-5 melanoma = test system: SK-MEL-5 melanoma
SF-295 CNS = test system: SF-295 CNS
ACHN renal = test system: ACHN renal
T-47D breast = test system: T-47D breast
SK-MEL-28 melanoma = test system: SK-MEL-28 melanoma
NCI-H23 lung = test system: NCI-H23 lung

| SMILES | GI50 (SK-MEL-2 melanoma) | TGI (SK-MEL-2 melanoma) | GI50 (HCT-15 colon) | TGI (HCT-15 colon) | GI50 (MOLT-4 leukemia) | TGI (MOLT-4 leukemia) | GI50 (MALME-3M melanoma) | TGI (MALME-3M melanoma) | GI50 (SK-MEL-5 melanoma) | TGI (SK-MEL-5 melanoma) | GI50 (SF-295 CNS) | TGI (SF-295 CNS) | GI50 (ACHN renal) | TGI (ACHN renal) | GI50 (T-47D breast) | TGI (T-47D breast) | GI50 (SK-MEL-28 melanoma) | TGI (SK-MEL-28 melanoma) | GI50 (NCI-H23 lung) | TGI (NCI-H23 lung) |
| --- | --- | --- | --- | --- | --- | --- | --- | --- | --- | --- | --- | --- | --- | --- | --- | --- | --- | --- | --- | --- |
| CNCC(=O)NC(CO)C(=O)NC(CO)C(=O)NC1C(C(N)=O)OC(n2ccc(N)nc2=O)C(O)C1O (stereo not given) | 4.58 µg/mL | 23.7 µg/mL | 15.8 µg/mL | > 50 µg/mL | > 50 µg/mL | > 50 µg/mL | 0.225 µg/mL | 7.58 µg/mL | 16.1 µg/mL | > 50 µg/mL | 2.78 µg/mL | 17 µg/mL | 5.15 µg/mL | > 50 µg/mL | > 50 µg/mL | > 50 µg/mL | 21.7 µg/mL | > 50 µg/mL | 8.49 µg/mL | 48.8 µg/mL |
| CSc1ccc(NC(=O)Nc2cc(C)ccn2)cc1 | – | > 100 µM | – | > 100 µM | – | > 100 µM | – | > 100 µM | – | > 100 µM | – | > 100 µM | – | > 100 µM | – | > 100 µM | – | > 100 µM | – | > 100 µM |
| O=C(N=Nc1c(Cl)c(O)c2ccccc2c1O)C(=O)Nc1cccc(C(F)(F)F)c1 | 7.22 µM | 20.5 µM | 3.21 µM | 12 µM | 2.93 µM | 8.88 µM | 3.12 µM | 7.64 µM | 1.7 µM | 3.98 µM | 6.05 µM | 19.7 µM | 1.92 µM | 7.12 µM | 4.92 µM | 41.3 µM | 10.4 µM | 23.3 µM | 2.67 µM | 10.2 µM |
| CC1=NN(c2cccc(Cl)c2)C(=O)/C1=C\C=C\c1ccccc1 | 3.85 µM | 16.7 µM | 2.27 µM | 5.68 µM | 3.17 µM | > 100 µM | 2.76 µM | 9.19 µM | 2.27 µM | 5.76 µM | 3.17 µM | 67.8 µM | 1.79 µM | 3.34 µM | 2.29 µM | 39.5 µM | 2.09 µM | 4.3 µM | 2.32 µM | 6.13 µM |
| CN(C)C(=S)/N=c1\ssc(=S)n1Cc1ccco1 | – | 30.3 µM | – | > 100 µM | – | > 83.7 µM | – | > 100 µM | – | 38.2 µM | – | > 23 µM | – | > 100 µM | – | > 100 µM | – | > 100 µM | – | 45.6 µM |
| C(=C\c1ccncc1)/c1ccncc1 | > 100 µM | > 100 µM | > 100 µM | > 100 µM | > 100 µM | > 100 µM | > 100 µM | > 100 µM | > 100 µM | > 100 µM | > 100 µM | > 100 µM | > 100 µM | > 100 µM | > 100 µM | > 100 µM | > 100 µM | > 100 µM | > 100 µM | > 100 µM |
